Results published in BindingDB's records for doi:10.7270/Q2CV4GM1 (D3R/Abbott, 2015).
“And” between values parts separate entries of the source, which are not always exact repeats. Identical values can stand only once.

Biological target: T1, Tyrosine-protein kinase SYK [355-635] (Homo sapiens, UniProt P43405)
T1 construct: 355-635
Assay: SYK assay_HTRF

| Compound | IC50 |
| --- | --- |
| NC(=O)c1cccc(Nc2nccc(Nc3cccc4[nH]ncc34)n2)c1 [3-{[4-(1H-indazol-4-ylamino)pyrimidin-2-yl]amino}benzamide] | 533 nM |
| NS(=O)(=O)c1cccc(Nc2nccc(Nc3cccc4[nH]ncc34)n2)c1 [3-{[4-(1H-indazol-4-ylamino)pyrimidin-2-yl]amino}benzene-1-sulfonamide] | 18 nM and 47.5 nM |
| O=C1Cc2cc(Nc3nccc(Nc4cccc5[nH]ncc45)n3)ccc2N1 [GTC000107A] | 180 nM and 71 nM and 80.7 nM and 115 nM |
| NC(=O)c1ccc(Nc2nccc(Nc3cccc4[nH]ncc34)n2)cc1 [GTC000108B] | 100 nM and 218 nM and 51.4 nM and 59.8 nM |
| Cc1cc(=O)[nH]c2cc(Nc3nccc(Nc4cccc5[nH]ncc45)n3)ccc12 [GTC000109A] | 53.6 nM |
| c1cc(Nc2ccnc(Nc3ccc4c(c3)CCO4)n2)c2cn[nH]c2c1 [GTC000111A] | 222 nM |
| c1cc(Nc2ccnc(Nc3ccc4nn[nH]c4c3)n2)c2cn[nH]c2c1 [GTC000112A] | 52.8 nM and 79.8 nM |
| c1cc(Nc2ccnc(Nc3cccc4[nH]ncc34)n2)c2cn[nH]c2c1 [GTC000113A] | 160 nM |
| CC(=O)N1CCc2cc(Nc3nccc(Nc4cccc5[nH]ncc45)n3)ccc21 [GTC000114A] | 206 nM |
| O=c1[nH]c2ccc(Nc3nccc(Nc4cccc5[nH]ncc45)n3)cc2[nH]1 [GTC000115A] | 78.3 nM |
| O=C1CCc2ccc(Nc3nccc(Nc4cccc5[nH]ncc45)n3)cc21 [GTC000116A] | 195 nM and 146 nM |
| O=C1CCCc2cc(Nc3nccc(Nc4cccc5[nH]ncc45)n3)ccc21 [GTC000117A] | 91.2 nM |
| COc1cc(Nc2nccc(Nc3cccc4[nH]ncc34)n2)cc(OC)c1 [GTC000118A] | 35.3 nM and 67.1 nM and 93.5 nM and 203 nM |
| O=C(O)c1cccc(Nc2nccc(Nc3cccc4[nH]ncc34)n2)c1 [GTC000119A] | 207 nM |
| c1cc(Nc2ccnc(Nc3ccc4ncsc4c3)n2)c2cn[nH]c2c1 [GTC000122A] | 40 nM and 53.5 nM |
| Cc1nc2ccc(Nc3nccc(Nc4cccc5[nH]ncc45)n3)cc2s1 [GTC000123A] | 60.1 nM and 88.5 nM |
| Cn1ncc2ccc(Nc3nccc(Nc4cccc5[nH]ncc45)n3)cc21 [GTC000124A] | 16.8 nM and 21.7 nM |
| O=C(O)Cc1cccc(Nc2nccc(Nc3cccc4[nH]ncc34)n2)c1 [GTC000125A] | 118 nM and 493 nM |
| c1cc(Nc2nccc(Nc3cccc4[nH]ncc34)n2)cc(-c2cc[nH]n2)c1 [GTC000126A] | 22.3 nM and 41.9 nM |
| COC(=O)c1cccc(Nc2nccc(Nc3cccc4[nH]ncc34)n2)c1 [GTC000127B] | 250 nM and 58.5 nM and 127 nM |

| Compound | IC50 |
| --- | --- |
| CC(C)c1ccc(Nc2nccc(Nc3cccc4[nH]ncc34)n2)cc1 [GTC000128A] | 219 nM |
| c1cc(Nc2ccnc(Nc3ccc(N4CCOCC4)cc3)n2)c2cn[nH]c2c1 [GTC000129A] | 220 nM |
| c1cc(Nc2nccc(Nc3cccc4[nH]ncc34)n2)cc(-c2nnn[nH]2)c1 [GTC000130A] | 3.43 nM and 14.3 nM |
| N#Cc1cccc(Nc2nccc(Nc3cccc4[nH]ncc34)n2)c1 [GTC000131A] | 62.4 nM and 70.5 nM |
| FC(F)(F)c1cccc(Nc2nccc(Nc3cccc4[nH]ncc34)n2)c1 [GTC000132A] | 154 nM and 127 nM and 151 nM and 440 nM |
| O=C1NS(=O)(=O)c2cc(Nc3nccc(Nc4cccc5[nH]ncc45)n3)ccc21 [GTC000133A] | 17.3 nM and 44.6 nM |
| Cc1ncoc1-c1cccc(Nc2nccc(Nc3cccc4[nH]ncc34)n2)c1 [GTC000134A] | 29.2 nM and 49.8 nM and 66.1 nM and 130 nM |
| COc1ccc(Nc2nccc(Nc3cccc4[nH]ncc34)n2)cc1 [GTC000135A] | 179 nM and 225 nM and 243 nM and 923 nM |
| FC(F)(F)c1ccc(Nc2nccc(Nc3cccc4[nH]ncc34)n2)cc1 [GTC000136A] | 206 nM |
| c1cc(Nc2nccc(Nc3cccc4[nH]ncc34)n2)cc(-c2ccsc2)c1 [GTC000137A] | 94.2 nM and 162 nM and 160 nM and 353 nM |
| Oc1ccc(Nc2nccc(Nc3cccc4[nH]ncc34)n2)cc1 [GTC000138A] | 195 nM and 50.5 nM |
| N#Cc1ccc(Nc2nccc(Nc3cccc4[nH]ncc34)n2)cc1 [GTC000139A] | 211 nM |
| CNC(=O)COc1cccc(Nc2nccc(Nc3cccc4[nH]ncc34)n2)c1 [GTC000140A] | 36.3 nM and 45.7 nM and 37.4 nM and 80.7 nM |
| COc1ccc(Nc2nccc(Nc3cccc4[nH]ncc34)n2)cc1Cl [GTC000141A] | 140 nM and 145 nM and 284 nM and 612 nM |
| c1cc(Nc2ccnc(Nc3ccc4c(c3)CCC4)n2)c2cn[nH]c2c1 [GTC000142A] | 114 nM and 255 nM |
| O=C1Nc2cc(Nc3nccc(Nc4cccc5[nH]ncc45)n3)ccc2OC1(F)F [GTC000144A] | 13.5 nM and 104 nM |
| CC1(C)Oc2ccc(Nc3nccc(Nc4cccc5[nH]ncc45)n3)cc2NC1=O [GTC000145A] | 38.6 nM and 153 nM |
| CNC(=O)c1ccc(Nc2nccc(Nc3cccc4[nH]ncc34)n2)cc1 [GTC000146A] | 65.3 nM and 114 nM |
| O=S1(=O)Cc2ccc(Nc3nccc(Nc4cccc5[nH]ncc45)n3)cc2C1 [GTC000147A] | 60.5 nM and 109 nM |
| Cc1nc(-c2cccc(Nc3nccc(Nc4cccc5[nH]ncc45)n3)c2)no1 [GTC000148A] | 6.7 nM and 32 nM |

| Compound | IC50 |
| --- | --- |
| O=C1Nc2ccc(Nc3nccc(Nc4cccc5[nH]ncc45)n3)cc2CO1 [GTC000149A] | 7.21 nM and 25.2 nM |
| CCN(CC)C(=O)c1ccc(Nc2nccc(Nc3cccc4[nH]ncc34)n2)cc1 [GTC000150A] | 315 nM |
| O=C1OCc2cc(Nc3nccc(Nc4cccc5[nH]ncc45)n3)ccc21 [GTC000152A] | 68.5 nM and 88.5 nM |
| O=S1(=O)NCc2cc(Nc3nccc(Nc4cccc5[nH]ncc45)n3)ccc21 [GTC000153A] | 42.2 nM and 85.9 nM and 54.1 nM |
| O=C1Cc2ccc(Nc3nccc(Nc4cccc5[nH]ncc45)n3)cc2N1 [GTC000154A] | 22.3 nM and 41.5 nM |
| c1cc(Nc2ccnc(Nc3ccc4c(c3)OCO4)n2)c2cn[nH]c2c1 [GTC000155A] | 40.5 nM and 65.9 nM and 77.6 nM and 267 nM |
| c1cc(Nc2nccc(Nc3cccc4[nH]ncc34)n2)cc(-c2cnco2)c1 [GTC000156A] | 18.7 nM and 33.6 nM |
| c1cc(Nc2nccc(Nc3cccc4[nH]ncc34)n2)cc(-c2nc3ccccc3[nH]2)c1 [GTC000157A] | 5.4 nM and 15.2 nM |
| Cn1c(=O)n(C)c2cc(Nc3nccc(Nc4cccc5[nH]ncc45)n3)ccc21 [GTC000158A] | 98.6 nM and 89.1 nM and 244 nM |
| Cc1cc(=O)[nH]c2ccc(Nc3nccc(Nc4cccc5[nH]ncc45)n3)cc12 [GTC000159A] | 28.1 nM |
| c1cc(Nc2ccnc(Nc3ccc4oncc4c3)n2)c2cn[nH]c2c1 [GTC000160A] | 48.4 nM and 76 nM |
| Cn1cnc2cc(Nc3nccc(Nc4cccc5[nH]ncc45)n3)ccc21 [GTC000162A] | 110 nM and 94 nM and 245 nM |
| Cc1ncoc1-c1ccc(Nc2nccc(Nc3cccc4[nH]ncc34)n2)cc1 [GTC000163A] | 149 nM and 221 nM |
| Cn1ncc2cc(Nc3nccc(Nc4cccc5[nH]ncc45)n3)ccc21 [GTC000164A] | 58.5 nM and 86.1 nM and 214 nM |
| c1cc(Nc2ccnc(Nc3ccc(-c4cnco4)cc3)n2)c2cn[nH]c2c1 [GTC000165A] | 119 nM and 180 nM and 340 nM and 202 nM |
| O=C1CNC(=O)N1c1ccc(Nc2nccc(Nc3cccc4[nH]ncc34)n2)cc1 [GTC000166A] | 242 nM |
| O=C1CNC(=O)N1c1cccc(Nc2nccc(Nc3cccc4[nH]ncc34)n2)c1 [GTC000167A] | 233 nM |
| Cc1nc2cc(Nc3nccc(Nc4cccc5[nH]ncc45)n3)ccc2s1 [GTC000168A] | 468 nM |

The remaining lines, values ahead:

| IC50 | Compound |
| --- | --- |
| 421 nM and 242 nM | O=c1ccc2cc(Nc3nccc(Nc4cccc5[nH]ncc45)n3)ccc2o1 [GTC000169A] |
| 573 nM | CN1C(=O)c2ccc(Nc3nccc(Nc4cccc5[nH]ncc45)n3)cc2C1=O [GTC000170A] |
| 506 nM | O=C1NC(=O)c2cc(Nc3nccc(Nc4cccc5[nH]ncc45)n3)ccc21 [GTC000171A] |
| 589 nM | CCN(C(C)=O)c1ccc(Nc2nccc(Nc3cccc4[nH]ncc34)n2)cc1 [GTC000172A] |
| 148 nM and 195 nM and 348 nM and 710 nM | c1ccc(COc2cccc(Nc3nccc(Nc4cccc5[nH]ncc45)n3)c2)cc1 [GTC000173A] |
| 175 nM and 209 nM | COC(=O)c1ccc(Nc2nccc(Nc3cccc4[nH]ncc34)n2)cc1 [GTC000174A] |
| 793 nM | CC(=O)N(C)c1ccc(Nc2nccc(Nc3cccc4[nH]ncc34)n2)cc1 [GTC000175A] |
| 508 nM | CC(C)(C)c1ccc(Nc2nccc(Nc3cccc4[nH]ncc34)n2)cc1 [GTC000176A] |
| 13.9 nM and 43.1 nM and 35.4 nM and 19.6 nM | Cc1cc(=O)[nH]c2c(C)cc(Nc3nccc(Nc4cccc5[nH]ncc45)n3)cc12 [GTC000177A] |
| 685 nM | CC(C)ONS(=O)(=O)c1cccc(Nc2nccc(Nc3cccc4[nH]ncc34)n2)c1 [GTC000178A] |
| 4160 nM | O=S(=O)(c1cccc(Nc2nccc(Nc3cccc4[nH]ncc34)n2)c1)N1CCCCC1 [GTC000179A] |
| 200 nM and 276 nM | CONS(=O)(=O)c1ccc(Nc2nccc(Nc3cccc4[nH]ncc34)n2)cc1 [GTC000180A] |
| 65.5 nM and 211 nM and 194 nM and 162 nM and 72.9 nM | NS(=O)(=O)c1ccc(Nc2nccc(Nc3cccc4[nH]ncc34)n2)cc1 [GTC000181A] |
| 433 nM and 398 nM | O=C(Nc1ccccc1)c1ccc(Nc2nccc(Nc3cccc4[nH]ncc34)n2)cc1 [GTC000182A] |
| 546 nM and 618 nM | Cc1ccc(NC(=O)c2ccc(Nc3nccc(Nc4cccc5[nH]ncc45)n3)cc2)cc1 [GTC000183A] |
| 493 nM and 443 nM and 161 nM | CNS(=O)(=O)c1ccc(Nc2nccc(Nc3cccc4[nH]ncc34)n2)cc1 [GTC000184A] |
| 4190 nM | CN1CCN(C(=O)c2ccc(Nc3nccc(Nc4cccc5[nH]ncc45)n3)cc2)CC1 [GTC000185A] |
| 615 nM and 427 nM | O=S(=O)(Nc1nccs1)c1ccc(Nc2nccc(Nc3cccc4[nH]ncc34)n2)cc1 [GTC000186A] |
| 1380 nM and 971 nM | Cc1noc(NS(=O)(=O)c2ccc(Nc3nccc(Nc4cccc5[nH]ncc45)n3)cc2)c1C [GTC000187A] |
| 1800 nM and 1340 nM | O=S(=O)(c1ccc(Nc2nccc(Nc3cccc4[nH]ncc34)n2)cc1)N1CCCC1 [GTC000188A] |
| 741 nM and 942 nM and 582 nM | Cc1cc(NS(=O)(=O)c2ccc(Nc3nccc(Nc4cccc5[nH]ncc45)n3)cc2)no1 [GTC000189A] |
| 1100 nM | O=S(=O)(O)c1cccc(Nc2nccc(Nc3cccc4[nH]ncc34)n2)c1 [GTC000190A] |
| 673 nM and 571 nM | O=S(=O)(Nc1ccccn1)c1ccc(Nc2nccc(Nc3cccc4[nH]ncc34)n2)cc1 [GTC000191A] |
| 611 nM | O=C(COc1ccc(Nc2nccc(Nc3cccc4[nH]ncc34)n2)cc1)NCCCO [GTC000192A] |
| 575 nM | O=S(=O)(Cc1cccc(Nc2nccc(Nc3cccc4[nH]ncc34)n2)c1)NCCCO [GTC000193A] |
| 1180 nM and 1960 nM and 1640 nM | CC(C)(C)OC(=O)COc1ccc(Nc2nccc(Nc3cccc4[nH]ncc34)n2)cc1 [GTC000194A] |
| 426 nM | CNS(=O)(=O)Cc1ccc(Nc2nccc(Nc3cccc4[nH]ncc34)n2)cc1 [GTC000195A] |
| 227 nM | NC(=O)COc1ccc(Nc2nccc(Nc3cccc4[nH]ncc34)n2)cc1 [GTC000196A] |
| 299 nM | CNC(=O)COc1ccc(Nc2nccc(Nc3cccc4[nH]ncc34)n2)cc1 [GTC000197A] |
